{"source": "ChEMBL document CHEMBL5113508", "about": "“Targeting Human CD22/Siglec-2 with Dimeric Sialosides as Novel Oligosaccharide Mimetics” (J Med Chem, 2022)", "key": {"B-cell receptor CD22 [1]": {"biological_target": "T1, B-cell receptor CD22 (Homo sapiens, UniProt P20273)", "T1 sequence (P20273 whole entry)": "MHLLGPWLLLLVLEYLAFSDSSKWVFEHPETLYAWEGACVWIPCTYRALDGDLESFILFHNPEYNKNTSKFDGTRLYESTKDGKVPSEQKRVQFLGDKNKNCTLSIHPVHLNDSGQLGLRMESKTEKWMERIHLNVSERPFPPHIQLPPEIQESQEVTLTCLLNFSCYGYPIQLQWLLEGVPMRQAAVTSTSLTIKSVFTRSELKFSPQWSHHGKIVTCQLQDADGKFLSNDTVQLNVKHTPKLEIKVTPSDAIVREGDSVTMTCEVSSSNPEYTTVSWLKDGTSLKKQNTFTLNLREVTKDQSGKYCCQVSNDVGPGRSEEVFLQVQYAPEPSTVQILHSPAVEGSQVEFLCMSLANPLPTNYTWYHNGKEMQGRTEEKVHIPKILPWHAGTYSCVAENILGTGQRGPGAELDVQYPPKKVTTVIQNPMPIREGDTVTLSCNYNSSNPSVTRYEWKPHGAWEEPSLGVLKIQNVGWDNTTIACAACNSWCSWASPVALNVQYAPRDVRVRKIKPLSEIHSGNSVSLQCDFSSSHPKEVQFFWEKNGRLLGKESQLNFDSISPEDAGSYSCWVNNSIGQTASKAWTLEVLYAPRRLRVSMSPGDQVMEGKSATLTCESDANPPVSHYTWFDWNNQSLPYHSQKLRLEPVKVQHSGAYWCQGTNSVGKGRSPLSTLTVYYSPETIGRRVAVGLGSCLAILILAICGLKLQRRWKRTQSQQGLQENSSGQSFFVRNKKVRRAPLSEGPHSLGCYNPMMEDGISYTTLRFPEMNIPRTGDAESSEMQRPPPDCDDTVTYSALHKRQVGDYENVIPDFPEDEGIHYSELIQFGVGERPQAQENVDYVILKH", "test": "Inhibition of CD22 in human Daudi cells preincubated for 15 mins followed by biotinylated dimeric 2-(78-biotinoylamino-1,4,7,10,13,16-hexaoxa-octadecyl)-1,4-bis(2-aza-l-oxo-8-(sodium(5-acetamido-3,5,9-trideoxy-9-(4-phenylbenzamido)-D-glycero-a-D-galacto-non-2-ulopyranosyloxyonate))-5-thia-octyl) benzene probe addition incubated for 20 mins by flow cytometric analysis", "format": "cell-based"}, "[2]": {"biological_target": "B-cell receptor CD22 (Homo sapiens) (UniProt P20273)", "test": "Inhibition of CD22 (unknown origin) in human Daudi cells assessed as relative inhibitory potency in presence of biotinylated dimeric 2-(78-biotinoylamino-1,4,7,10,13,16-hexaoxa-octadecyl)-1,4-bis(2-aza-l-oxo-8-(sodium(5-acetamido-3,5,9-trideoxy-9-(4-phenylbenzamido)-D-glycero-a-D-galacto-non-2-ulopyranosyloxyonate))-5-thia-octyl) benzene preincubated for 15 mins followed by probe addition incubated for 20 mins by flow cytometric analysis relative to 1,4-Bis-(2-aza-1-oxo-8-(sodium-(5-acetamido-3,5-dideoxy-D-glycero-alpha-D-galacto-non-2-ulopyranosyloxyonate))-5-thia-octyl)benzene", "format": "cell-based", "details": "time 35.0 min"}, "B-cell receptor CD22 [3]": {"biological_target": "T1, B-cell receptor CD22", "test": "Inhibition hFc tagged CD22 incubated for 4 hrs by ELISA"}, "[4]": {"biological_target": "B-cell receptor CD22 (Homo sapiens) (UniProt P20273)", "test": "Inhibition of hFc tagged CD22 (unknown origin) assessed as relative inhibitory potency incubated for 4 hrs by ELISA relative to 1,4-Bis-(2-aza-1-oxo-8-(sodium-(5-acetamido-3,5-dideoxy-D-glycero-alpha-D-galacto-non-2-ulopyranosyloxyonate))-5-thia-octyl)benzene"}, "[5]": {"biological_target": "B-cell receptor CD22 (Homo sapiens) (UniProt P20273)", "test": "Antagonist activity at CD22 in IgM stimulated human Daudi cells assessed as increase in calcium flux incubated for 10 mins by flow cytometric analysis", "format": "cell-based", "details": "dose 2-200 µM, DDE = dose-dependent effect"}}, "note": "pIC50: −log10 of the molar value."}
{"smiles": "CC(=O)N[C@H]1[C@H]([C@H](O)[C@H](O)CNC(=O)c2ccc(-c3ccccc3)cc2)O[C@@](OCCCSCCNC(=O)c2ccc(C(=O)NCCSCCCO[C@]3(C(=O)O)C[C@H](O)[C@@H](NC(C)=O)[C@H]([C@H](O)[C@H](O)CNC(=O)c4ccc(-c5ccccc5)cc4)O3)cc2)(C(=O)O)C[C@@H]1O", "values": [{"measurement": "pIC50", "setting": "B-cell receptor CD22 [1]", "value": 5.66}, {"measurement": "fold change (FC)", "setting": "[2]", "value": 2940}, {"measurement": "pIC50", "setting": "B-cell receptor CD22 [3]", "value": 9.39}, {"measurement": "fold change (FC)", "setting": "[4]", "value": 100}, {"measurement": "Activity", "setting": "[5]", "value": "Dde"}]}
